Article PMC6274554, “Synthetic Strategy and Anti-Tumor Activities of Macrocyclic Scaffolds Based on 4-Hydroxyproline” (Molecules, 2016)
Read-outs that look alike come from different tables or passages of the source.

Key:
Format in all cases: cell-based, human
[1] = tested on: lung cancer cell line A549; experiment: MTT cytotoxicity assay, A549; settings: A549 cells, 8000 cells/well, 24 h incubation with compound, absorbance 490 nm, read-out: IC50 (μmol/L) A549
Excerpt: (§1) A small library derived from 6a–b, 9 and 10a–c was obtained by hydrolysis of the macrocycles and condensation with amines. The anti-tumor activities for lung cancer cell line A549, breast cancer cell line MDA-MB-231 and hepatocarcinoma cell line Hep G2 of all these new compounds were screened in vitro by an MTT assay. Most of the compounds show some inhibitory activities against A549, MDA-MB-231 and Hep G2. […] In the future, further structure–activity relationship studies will be performed to determine how the substituents affected the anti-tumor activity and to design the best chemical structure in the future.
(§2) The human lung cancer cell line A549, breast cancer cell line MDA-MB-231 and hepatocarcinoma cell line Hep G2 were cultured in Dulbecco’s modified Eagle’s medium (DMEM) supplemented with antibiotics (penicillin 50 U/mL; streptomycin 50 µg/mL) and 10% FCS. The incubation was at 37 °C in a humidified atmosphere of 5% CO2 in air before experiments. Cells were first seeded at a density of 8000 cells/well in a 96-well plate for 48 hours. Solutions containing respective concentrations of compounds were added into wells and incubation continued for another 24 hours. After that, the MTT (3-(4,5-dimethylthiazol-2-yl)-2,5-diphenyltetrazolium bromide) dye stock solution (10 μL, 5 mg/mL) was added to each well. After 4 h, the supernatant was removed and DMSO (100 μL) was added to solubilize the MTT. The absorbance was measured at a wave length of 490 nm (A490nm) on an ELISA microplate reader. Results were expressed as IC50 values.

[2] = tested on: hepatocarcinoma cell line Hep G2; experiment: MTT cytotoxicity assay, Hep G2; settings: 8000 cells/well, 24 h incubation with compound, absorbance 490 nm, read-out: IC50 (μmol/L) Hep G2
Excerpt: as §1, §2

[3] = tested on: breast cancer cell line MDA-MB-231; experiment: MTT cytotoxicity assay, MDA-MB-231; settings: MDA-MB-231 cells, 8000 cells/well, 24 h incubation with compound, absorbance 490 nm, read-out: IC50 (μmol/L) MDA-MB-231
Excerpt: as §1, §2

[4] = Homo sapiens, HepG2, Hep G2 cells

Row | SMILES | IC50 ([1]; Homo sapiens) [µmol/L] | IC50 [2, 4] [µmol/L] | IC50 ([3]; Homo sapiens) [µmol/L] | IC50 [1] [µmol/L] | IC50 ([2]; Hep G2 cells) [µmol/L] | IC50 [3] [µmol/L]
1 | CC(C)CNC(=O)[C@@H]1C[C@@H]2CN1C(=O)c1cccc(c1)OC/C=C\CO2 [Compound 33, (4Z,8R,10S)-12-Oxo-N-isobutyl-2,7-dioxa-11-aza-tricyclo[11.3.1.1^8,11]octadecane-4,1(17),13,15-tetraene-10-carboxamide] | 2.55 | 41.1 | 11.9 | – | – | –
2 | CC(C)CNC(=O)[C@@H]1C[C@@H]2CN1C(=O)c1cccc(c1)OCCCCCCO2 [Compound 45, (10R,12S)-14-oxo-N-Isobutyl-2,9-dioxa-13-aza-tricyclo[13.3.1.1^10,13]eicosane-1(19),15,17-triene-12-carboxamide] | 93.6 | 89.6 | 88.7 | – | – | –
3 | CC(C)CNC(=O)[C@@H]1C[C@@H]2CN1C(=O)c1cccc(c1)OCCCCCO2 [Compound 41, (9R,11S)-13-Oxo-N-isobutyl-2,8-dioxa-12-aza-tricyclo[12.3.1.1^9,12]nonadecane-1(18),14,16-triene-11-carboxamide] | 34.9 | > 100 | 47.3 | – | – | –
4 | O=C(O)[C@@H]1C[C@@H]2CN1C(=O)c1cccc(c1)OCCCCCCO2 [Compound 42, (10R,12S)-14-Oxo-2,9-dioxa-13-aza-tricyclo[13.3.1.1^10,13]eicosane-1(19),15,17-triene-12-carboxylic acid] | > 100 | 87.4 | > 100 | – | – | –
5 | CC(C)CNC(=O)[C@@H]1C[C@@H]2CN1C(=O)c1cccc(c1)OCCn1nncc1CO2 [Compound 29, (12R,14S)-16-Oxo-N-isobutyl-2,11-dioxa-5,6,7,15-tetraaza-tetracyclo[15.3.1.1^12,15.0^5,9]docosane-6,8,1(21),17,19-pentaene-14-carboxamide] | 32.2 | 37.3 | 43.2 | – | – | –
6 | O=C(O)[C@@H]1C[C@@H]2CN1C(=O)c1cccc(c1)OCCn1nncc1CO2 [Compound 26, (12R,14S)-16-Oxo-2,11-dioxa-5,6,7,15-tetraaza-tetracyclo[15.3.1.1^12,15.0^5,9]docosane-6,8,1(21),17,19-pentaene-14-carboxylic acid] | 37.1 | 44.9 | 34.3 | – | – | –
7 | O=C(Nc1ccccc1)[C@@H]1C[C@@H]2CN1C(=O)c1cccc(c1)OC/C=C\CO2 [Compound 32, (4Z,8R,10S)-12-Oxo-N-phenyl-2,7-dioxa-11-aza-tricyclo[11.3.1.1^8,11]octadecane-4,1(17),13,15-tetraene-10-carboxamide] | 4.76 | 26.3 | 9.67 | – | – | –
8 | N.N.[Cl][Pt][Cl] [Cisplatin, reference compound] | – | – | – | 15.4 | 17.4 | 19.7
9 | O=C(O)[C@@H]1C[C@@H]2CN1C(=O)c1cccc(c1)OC/C=C\CO2 [Compound 30, (4Z,8R,10S)-12-Oxo-2,7-dioxa-11-aza-tricyclo[11.3.1.1^8,11]octadecane-4,1(17),13,15-tetraene-10-carboxylic acid] | 11.2 | 23.2 | 10.3 | – | – | –
10 | NC(=O)[C@@H]1C[C@@H]2CN1C(=O)c1cccc(c1)OCCn1cc(nn1)CO2 [Compound 23, (11R,13S)-15-Oxo-2,10-dioxa-5,6,7,14-tetraaza-tetracyclo[14.3.1.1^5,8.1^11,14]docosane-6,8(21),1(20),16,18-pentaene-13-carboxamide] | – | – | – | 26.8 | 37.3 | 29.9
11 | CC(C)CNC(=O)[C@@H]1C[C@@H]2CN1C(=O)c1cccc(c1)OCCCCO2 [Compound 37, (8R,10S)-12-Oxo-N-isobutyl-2,7-dioxa-11-aza-tricyclo[11.3.1.1^8,11]octadecane-1(17),13,15-triene-10-carboxamide] | 77.9 | 73.1 | 86.3 | – | – | –
12 | O=C(O)[C@@H]1C[C@@H]2CN1C(=O)c1cccc(c1)OCCCCO2 [Compound 34, (8R,10S)-12-Oxo-2,7-dioxa-11-aza-tricyclo[11.3.1.1^8,11]octadecane-1(17),13,15-triene-10-carboxylic acid] | > 100 | 96.2 | 96.2 | – | – | –
13 | O=C(Nc1ccccc1)[C@@H]1C[C@@H]2CN1C(=O)c1cccc(c1)OCCCCCCO2 [Compound 44, (10R,12S)-14-Oxo-N-phenyl-2,9-dioxa-13-aza-tricyclo[13.3.1.1^10,13]eicosane-1(19),15,17-triene-12-carboxamide] | 98.2 | 88.1 | 23.1 | – | – | –
14 | O=C(Nc1ccccc1)[C@@H]1C[C@@H]2CN1C(=O)c1cccc(c1)OCCn1nncc1CO2 [Compound 28, (12R,14S)-16-Oxo-N-phenyl-2,11-dioxa-5,6,7,15-tetraaza-tetracyclo[15.3.1.1^12,15.0^5,9]docosane-6,8,1(21),17,19-pentaene-14-carboxamide] | 46.3 | 36.3 | 43.7 | – | – | –
15 | O=C(O)[C@@H]1C[C@@H]2CN1C(=O)c1cccc(c1)OCCCCCO2 [Compound 38, (9R,11S)-13-Oxo-2,8-dioxa-12-aza-tricyclo[12.3.1.1^9,12]nonadecane-1(18),14,16-triene-11-carboxylic acid] | > 100 | > 100 | 92.3 | – | – | –
16 | CC(C)CNC(=O)[C@@H]1C[C@@H]2CN1C(=O)c1cccc(c1)OCCn1cc(nn1)CO2 [Compound 25, (11R,13S)-15-Oxo-N-isobutyl-2,10-dioxa-5,6,7,14-tetraaza-tetracyclo[14.3.1.1^5,8.1^11,14]docosane-6,8(21),1(20),16,18-pentaene-13-carboxamide] | – | – | – | 37.7 | 48.3 | 42.5
17 | O=C(Nc1ccccc1)[C@@H]1C[C@@H]2CN1C(=O)c1cccc(c1)OCCn1cc(nn1)CO2 [Compound 24, (11R,13S)-15-Oxo-N-phenyl-2,10-dioxa-5,6,7,14-tetraaza-tetracyclo[14.3.1.1^5,8.1^11,14]docosane-6,8(21),1(20),16,18-pentaene-13-carboxamide] | – | – | – | 45.7 | 46.3 | 35.6
18 | NC(=O)[C@@H]1C[C@@H]2CN1C(=O)c1cccc(c1)OCCCCCO2 [Compound 39, (9R,11S)-13-Oxo-2,8-dioxa-12-aza-tricyclo[12.3.1.1^9,12]nonadecane-1(18),14,16-triene-11-carboxamide] | 63.7 | > 100 | 57.3 | – | – | –
19 | NC(=O)[C@@H]1C[C@@H]2CN1C(=O)c1cccc(c1)OCCCCO2 [Compound 35, (8R,10S)-12-Oxo-2,7-dioxa-11-aza-tricyclo[11.3.1.1^8,11]octadecane-1(17),13,15-triene-10-carboxamide] | 89.5 | 91.5 | 90.5 | – | – | –
20 | NC(=O)[C@@H]1C[C@@H]2CN1C(=O)c1cccc(c1)OC/C=C\CO2 [Compound 31, (4Z,8R,10S)-12-Oxo-2,7-dioxa-11-aza-tricyclo[11.3.1.1^8,11]octadecane-4,1(17),13,15-tetraene-10-carboxamide] | 5.21 | 31.9 | 12.3 | – | – | –
21 | O=C(Nc1ccccc1)[C@@H]1C[C@@H]2CN1C(=O)c1cccc(c1)OCCCCCO2 [Compound 40, (9R,11S)-13-Oxo-N-phenyl-2,8-dioxa-12-aza-tricyclo[12.3.1.1^9,12]nonadecane-1(18),14,16-triene-11-carboxamide] | 88 | 68.4 | 76.4 | – | – | –
22 | O=C(Nc1ccccc1)[C@@H]1C[C@@H]2CN1C(=O)c1cccc(c1)OCCCCO2 [Compound 36, (8R,10S)-12-Oxo-N-phenyl-2,7-dioxa-11-aza-tricyclo[11.3.1.1^8,11]octadecane-1(17),13,15-triene-10-carboxamide] | 54.3 | 95.4 | 85.3 | – | – | –
23 | NC(=O)[C@@H]1C[C@@H]2CN1C(=O)c1cccc(c1)OCCCCCCO2 [Compound 43, (10R,12S)-14-Oxo-2,9-dioxa-13-aza-tricyclo[13.3.1.1^10,13]eicosane-1(19),15,17-triene-12-carboxamide] | 69.7 | 64.9 | 66 | – | – | –
24 | NC(=O)[C@@H]1C[C@@H]2CN1C(=O)c1cccc(c1)OCCn1nncc1CO2 [Compound 27, (12R,14S)-16-Oxo-2,11-dioxa-5,6,7,15-tetraaza-tetracyclo[15.3.1.1^12,15.0^5,9]docosane-6,8,1(21),17,19-pentaene-14-carboxamide] | 41.3 | 34.7 | 28 | – | – | –
